In paper PMC9356065, “Novel psoralen derivatives as anti-breast cancer agents and their light-activated cytotoxicity against HER2 positive breast cancer cells” (Scientific Reports, 2022):

How the values were obtained:
[1] = system: MDA-MB-231; experiment: MTT cytotoxicity, 48 h, without UVA; assay type: cell-based; conditions: Homo sapiens, MDA-MB-231, light or radiation study; for inhibition at 50 µg/mL: I = %inhibition lower than 50%, read-out: Cytotoxic activity MDA-MB-231 %Inhibition; for IC50: hormone-independent breast cancer, read-out: Cytotoxic activity MDA-MB-231 IC50
Experimental: (§1) MDA-MB-231 (triple-negative breast cancer) was obtained from M.D. Anderson Cancer Center, Houston, TX, USA). T47-D (hormone-dependent breast carcinoma), SK-BR-3 (human HER2+ breast cancer), and MRC-5 (normal embryonic lung fibroblast) were obtained from the American Type Culture Collection (ATCC, Manassas, VA, USA).
(§2) The cytotoxic effect of tested compounds was evaluated in two breast cancer cell lines, MDA-MB-231 and T47-D. Number of survival cells after exposure to tested compounds for 48 h was determined by MTT assay, as previously described.

[2] = system: T47-D; experiment: MTT cytotoxicity, 48 h, without UVA; assay type: cell-based, human; conditions: for inhibition at 50 µg/mL / IC50: Homo sapiens, T47D, light or radiation study, 48 h, without UVA; for inhibition at 50 µg/mL: I = %inhibition lower than 50%, read-out: Cytotoxic activity T47-D %Inhibition; for IC50: hormone-dependent breast cancer, read-out: Cytotoxic activity T47-D IC50; for Selectivity Index (SI): SI = IC50 for MRC-5/IC50 for T47-D
Experimental: Additionally, the cytotoxicity towards normal cells, human embryonal lung fibroblast cell MRC-5 was also assessed.
as §1, §2

[3] = molecular target: T1, aromatase (CYP19) (Homo sapiens, UniProt P11511); experiment: Inhibition of aromatase (AIA); assay type: biochemical; conditions: for inhibition at 12.5 µM: I = %inhibition lower than 50%, read-out: Aromatase inhibitory activity %Inhibition
T1 sequence (P11511 1-503): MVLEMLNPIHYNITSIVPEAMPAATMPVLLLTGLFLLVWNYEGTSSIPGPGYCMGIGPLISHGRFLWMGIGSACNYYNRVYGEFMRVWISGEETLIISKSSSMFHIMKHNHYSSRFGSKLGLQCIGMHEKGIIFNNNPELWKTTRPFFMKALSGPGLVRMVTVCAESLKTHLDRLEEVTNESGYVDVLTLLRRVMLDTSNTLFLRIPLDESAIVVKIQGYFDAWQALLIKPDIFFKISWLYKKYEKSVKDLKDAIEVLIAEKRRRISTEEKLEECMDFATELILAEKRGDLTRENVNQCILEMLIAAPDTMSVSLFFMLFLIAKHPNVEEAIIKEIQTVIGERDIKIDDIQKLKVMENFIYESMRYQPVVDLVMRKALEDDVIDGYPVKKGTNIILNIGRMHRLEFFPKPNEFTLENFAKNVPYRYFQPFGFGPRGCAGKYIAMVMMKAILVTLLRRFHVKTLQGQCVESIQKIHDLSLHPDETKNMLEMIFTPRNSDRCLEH
Experimental: Estrogens are the critical risk factor for breast cancer initiation and progression and the aromatase enzyme involves in the final step conversion of androgens to estrogens[21],[22]. […] In this study, the synthesized psoralen derivatives were also tested for aromatase inhibitory activity (AIA) which is considered to be one of chemopreventive mechanisms for hormone dependent breast cancer.
Inhibition of the aromatase was performed using the method designed by Stresser et al.[39].

[4] = system: SK-BR-3; experiment: Dark and light-activated (UVA) cytotoxicity, MTT; assay type: cell-based, human; conditions: Homo sapiens, SK-BR-3, light or radiation study; irradiation with UVA (2.0 J cm^−2); HER2+ breast cancer
Experimental: (§3) The selected compounds were screened for their IC50 values against both HER2+ breast cancer (SK-BR-3), and HER2− breast cancer (MDA-MB-231) in both dark and light-activated conditions (Table 2). Additionally, a negative control study was also performed with SK-BR-3 and MDA-MB-231 cells in the absence of tested compound under UVA irradiation (See Fig S7., Supporting Information).
(§4) SK-BR-3 and MDA-MB-231 cells were seeded into 96-well cell culture plates at 5 × 10^3 cells/well and incubated for 24 h at 37 °C under 5% CO2. After that, the cells were treated with 50 μM of psoralen derivatives in DMEM with 10% FBS and the cells were continued incubation for another 4 h. After incubation, the cells were washed with PBS (3 times) and then irradiated by a 365 nm lamp with the light intensity of 2.0 J cm^−2 for 12.5 min before re-incubation for another 72 h. After incubation, the cell was treated with methylthiazolyldiphenyl-tetrazolium bromide (MTT reagent 200 μL, 0.5 mg mL^−1, Sigma-Aldrich) for 2 h. After reagent removal, DMSO was added to dissolve the formazan product and the cell viabilities were determined through UV–Vis absorption of the resulting formazan at wavelength 560 nm using a microplate reader (BMG Labtech/SPECTROstar Nano). The cell morphology images were captured by using a light microscope (Microscope Nikon, inverted digital) at 20X magnification prior to treating with MTT reagent.

[5] = system: MDA-MB-231; experiment: Dark and light-activated (UVA) cytotoxicity, MTT; assay type: cell-based; conditions: Homo sapiens, MDA-MB-231, light or radiation study; irradiation with UVA (2.0 J cm^−2); HER2− breast cancer
Experimental: as §3, §4

[6] = Scavenging of diphenyl-picryl-hydrazyl radicals (DPPH); conditions: for DPPH %Inh: screening concentration 250 µM; for IC50: read-out: DPPH IC50
From the text: 1. Chemoprevention activity

[7] = system: differentiated HL-60 cells; experiment: Inhibition of TPA-induced superoxide anion radical generation (HL-60 Antioxidant); assay type: cell-based, human; conditions: screening concentration 100 µM; for inhibition at 100 µM: Homo sapiens, HL-60, read-out: HL-60 Antiox. %Inh
From the text: Inhibition of 12-O-tetradecanoylphorbol-13-acetate (TPA)-induced superoxide anion radical generation in differentiated HL-60 cells (HL-60 Antioxidant) TPA-induced superoxide anion radical formation was detected in differentiated HL-60 cells by photometric determination of cytochrome c reduction as previously described by Gerhäuser et al., 2003.ii Superoxide dismutase (SOD;15U) was a positive control. […]

[8] = system: SK-BR-3 cells; experiment: Cell morphology by light microscope; assay type: cell-based, human; conditions: 48 h; for morphology of SK-BR-3 cells under light activation: UVA 2.0 J cm^−2
Experimental: as §4, with “After incubation, the cells were washed with PBS (3 times) and then irradiated by a 365 nm lamp with the light intensity of 2.0 J cm^−2 for 12.5 min before re-incubation for another 72 h.” left out

[9] = system: SK-BR-3; experiment: Dark and light-activated (UVA) cytotoxicity, MTT; assay type: cell-based; conditions: Homo sapiens, dark, HER2+ breast cancer
[10] = system: MDA-MB-231; experiment: Dark and light-activated (UVA) cytotoxicity, MTT; assay type: cell-based; conditions: Homo sapiens, dark, HER2− breast cancer
[11] = molecular target: xanthine oxidase (Homo sapiens, UniProt P47989); experiment: Inhibition of xanthine oxidase (IXO); assay type: biochemical; conditions: for inhibition at 500 µM: screening concentration 500 µM, read-out: IXO %Inh
Experimental: 1. […]
Inhibition of xanthine oxidase (IXO)
Xanthine oxidase activity was determined by quantifying the amount of uric acid produced
from xanthine. […]

[12] = Inhibition of superoxide radical formation by xanthine/xanthine oxidase (XXO); assay type: biochemical; conditions: for IC50: read-out: XXO IC50; for XXO %Inh: screening concentration 500 µM
From the text: 1. […]

[13] = system: ERα activity in MCF-7 cells; design: method as in PMID 31673107; conditions: read-out: IC50 antagonism of ERα activity in MCF-7 cells; cited from earlier work

xanthine oxidase, sequence (P47989 whole entry, species assumed): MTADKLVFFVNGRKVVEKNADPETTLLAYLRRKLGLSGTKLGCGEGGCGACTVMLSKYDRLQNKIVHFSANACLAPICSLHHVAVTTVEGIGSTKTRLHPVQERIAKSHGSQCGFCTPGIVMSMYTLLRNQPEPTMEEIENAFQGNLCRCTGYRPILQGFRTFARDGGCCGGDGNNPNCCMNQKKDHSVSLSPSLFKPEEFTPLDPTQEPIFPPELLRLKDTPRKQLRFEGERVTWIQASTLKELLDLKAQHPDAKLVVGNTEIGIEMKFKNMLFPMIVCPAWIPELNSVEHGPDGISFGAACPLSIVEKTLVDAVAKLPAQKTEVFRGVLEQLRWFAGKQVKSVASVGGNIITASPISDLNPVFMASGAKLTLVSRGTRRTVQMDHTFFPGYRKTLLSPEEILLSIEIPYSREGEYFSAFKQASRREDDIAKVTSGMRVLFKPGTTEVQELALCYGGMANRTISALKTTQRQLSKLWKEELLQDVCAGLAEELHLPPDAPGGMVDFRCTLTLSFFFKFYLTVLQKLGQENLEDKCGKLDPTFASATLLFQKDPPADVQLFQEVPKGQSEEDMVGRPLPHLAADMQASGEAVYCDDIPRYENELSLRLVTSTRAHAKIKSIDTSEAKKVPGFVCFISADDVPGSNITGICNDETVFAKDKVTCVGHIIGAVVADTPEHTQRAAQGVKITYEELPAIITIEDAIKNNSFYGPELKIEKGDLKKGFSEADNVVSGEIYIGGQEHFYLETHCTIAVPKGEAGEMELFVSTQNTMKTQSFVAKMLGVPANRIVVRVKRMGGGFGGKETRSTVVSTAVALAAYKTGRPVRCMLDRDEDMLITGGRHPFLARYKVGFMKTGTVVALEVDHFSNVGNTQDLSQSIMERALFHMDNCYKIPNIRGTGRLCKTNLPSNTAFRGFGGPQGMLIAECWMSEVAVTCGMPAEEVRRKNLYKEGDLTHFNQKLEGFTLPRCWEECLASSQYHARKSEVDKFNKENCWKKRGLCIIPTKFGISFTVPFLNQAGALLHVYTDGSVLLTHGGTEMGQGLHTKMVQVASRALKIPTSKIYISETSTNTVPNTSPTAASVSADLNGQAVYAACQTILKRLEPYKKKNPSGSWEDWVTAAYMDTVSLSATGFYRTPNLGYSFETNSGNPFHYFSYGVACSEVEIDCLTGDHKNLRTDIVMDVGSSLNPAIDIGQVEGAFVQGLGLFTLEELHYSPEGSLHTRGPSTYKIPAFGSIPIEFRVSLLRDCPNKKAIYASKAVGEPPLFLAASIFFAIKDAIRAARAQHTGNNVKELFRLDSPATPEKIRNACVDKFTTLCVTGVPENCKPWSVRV

Compound	inhibition at 50 µg/mL [1] [%]	inhibition at 50 µg/mL [2] [%]	inhibition at 12.5 µM [3] [%]	IC50 [4] [µM]	IC50 [5] [µM]	DPPH %Inh [6] [%]	inhibition at 100 µM [7] [%]	melting point [°C]	IC50 [9] [µM]	IC50 [10] [µM]	inhibition at 500 µM [11] [%]	IC50 [12] [µM]	XXO %Inh [12] [%]	IC50 [2] [µM]	other results
COc1c2occc2c(NC(=O)c2ccco2)c2ccc(=O)oc12 [3g, N-(9-Methoxy-7-oxo-7H-furo[3,2-g]chromen-4-yl)furan-2-carboxamide]	0.5	24	16	2.71 ± 0.84	> 100	3	17	227 to 228	> 100	> 100	–	–	–	–	morphology of SK-BR-3 cells under light activation [8]: significantly changed; morphology of SK-BR-3 cells under dark condition [8]: maintained morphology of intact cells
COc1c2occc2c(NC(C)=O)c2ccc(=O)oc12 [3i, N-(9-Methoxy-7-oxo-7H-furo[3,2-g]chromen-4-yl)acetamide]	6	20	7	–	–	1	11	251 to 252	–	–	47	–	–	–	–
CCC(=O)Nc1c2ccoc2c(OC)c2oc(=O)ccc12 [3j, N-(9-Methoxy-7-oxo-7H-furo[3,2-g]chromen-4-yl)propionamide]	3	22	8	3.05 ± 1.02	> 100	2	11	233 to 234	> 100	> 100	29	187	–	–	morphology of SK-BR-3 cells under light activation [8]: significantly changed; morphology of SK-BR-3 cells under dark condition [8]: maintained morphology of intact cells
COc1c2occc2c(NC(=O)C(C)C)c2ccc(=O)oc12 [3k, N-(9-Methoxy-7-oxo-7H-furo[3,2-g]chromen-4-yl)isobutyramide]	4	36	8	66.1 ± 5.21	> 100	2	11	234 to 235	> 100	> 100	17	394	–	–	–
CCCCCC(=O)N(C(=O)CCCCC)c1c2ccoc2c(OC)c2oc(=O)ccc12 [3m, N-Hexanoyl-N-(9-methoxy-7-oxo-7H-furo[3,2-g]chromen-4-yl)hexanamide]	5	15	–	27.1 ± 1.2	> 100	1	0	170 to 171	> 100	> 100	–	–	2	–	IC50 ([3]; read-out: Aromatase inhibitory activity IC50): 9.4 ± 0.4 µM
COc1c2occc2c(NCc2ccccc2)c2ccc(=O)oc12 [4a, 4-(Benzylamino)-9-methoxy-7H-furo[3,2-g]chromen-7-one]	–	–	46	–	–	–	7	168 to 169	–	–	–	–	34	31.1 ± 1.54	IC50 [1]: > 100 µM; Selectivity Index (SI) [2]: > 5.0; IC50 [6]: 145 µM; IC50 [11]: 27.4 µM
O=c1ccc2ccc3occc3c2o1 [angelicin]	–	–	–	–	–	–	–	–	–	–	–	–	–	–	IC50 [13]: 11 µM
COc1c2occc2c(NS(=O)(=O)c2ccccc2)c2ccc(=O)oc12 [compound 5, N-(9-Methoxy-7-oxo-7H-furo[3,2-g]chromen-4-yl)benzenesulfonamide]	36	–	33	–	–	8	32	208 to 209	–	–	21	90.7	–	87.9 ± 6.34	Selectivity Index (SI) [2]: > 1.5
COc1c2c(c(NC(=S)Nc3ccccc3)c3ccoc13)C(OC)CC(=O)O2 (centres unmarked) [compound 6, 1-(5,9-Dimethoxy-7-oxo-6,7-dihydro-5H-furo[3,2-g]chromen-4-yl)-3-phenylthiourea]	–	–	18	–	–	–	–	191 to 192	–	–	48	–	24	> 100	IC50 [1]: 91.9 ± 4.49 µM; IC50 [6]: 52.6 µM; HL-60 Antiox. %Inh [7]: Toxic
